PMC3359160, “Dipeptidyl peptidase IV, aminopeptidase N and DPIV/APN-like proteases in cerebral ischemia” (Journal of Neuroinflammation, 2012)

Legend:
[1] = system: eMCAO-induced infarct volume; experiment: Effect of protease inhibitors on infarct volumes after eMCAO (transient focal cerebral ischemia); format: in vivo, male Sprague-Dawley rats; conditions: rat, icv f.c. 10 μM; for effect on eMCAO-induced infarct volumes in ipsilateral cortices / effect on striatal lesion sizes: 7 days post eMCAO; for reduction of eMCAO-induced infarct volume in ipsilateral cortex compared to vehicle: mean ± S.E.M.
Experimental: Studies were performed on male Sprague-Dawley rats (250-280 g) obtained from Harlan Winkelmann (Borchen, Germany). Animals were maintained under constant environmental conditions with an ambient temperature of 21 ± 2°C and relative humidity of 40%. They were housed with a 12-h light-dark cycle, food and water were given ad libitum. […] Animals were anesthetized with halothane in a mixture of nitrous oxide/oxygen (70:30) and maintained with 2-3% halothane during the following procedures: rats were placed in a Kopf stereotaxic frame and further anesthetized via a nose cone. For the induction of eMCAO, a burr hole (1 mm diameter) was drilled into the skull (coordinates: anterior 0.50 mm from bregma, lateral 5.2 mm to […]). After careful opening of the dura, a 29-gauge cannula was lowered 7.5 mm below the dura according to the rat brain atlas of Paxinos and Watson. […] After further 5 min, the cannula was slowly withdrawn. Throughout the operation procedure, rats were kept at 37 ± 0.5°C using a thermostatically controlled heating blanket attached to a rectal thermometer. The animals were then placed under a heating lamp to maintain normothermia until recovery. In order to perform the icv application of different protease inhibitors under halothane anesthesia, a second burr hole was drilled into the skull (coordinates: posterior 0.80 mm from bregma, lateral 1.5 mm to […]). Then, a 29-gauge cannula was lowered 4.5 mm below the dura. The icv injection of IPC1755 (2 μl of a 10 mmol/l PBS/DMSO solution, pH 7.4, f.c. 10 μM) was performed according to one of the following time schedules; […] According to legal requirements of the German animal law, animals were kept under anesthesia during each drug injection. Control rats were treated in the same way, except that the corresponding vehicle solution instead of the drug was injected. Thus, potential protective effects of halothane can be excluded. Rats were maintained at 37 ± 0.5°C throughout the operation procedures. In parallel, the body temperature was monitored using a rectal temperature sensor. Subsequently, the animals were placed into an incubator to maintain normothermia until recovery from anesthesia and then returned into their home cage. After a survival time of 7 days after eMCAO, animals were anesthetized by intraperitonial injection of pentobarbital and transcardially perfusion-fixed with saline followed by 4% paraformaldehyde in 0.1 M PBS (pH 7.4). Brains were then removed carefully, post-fixed in the same fixative for 2 h, and placed in a rodent brain matrix (rat, ASI Instruments, Warren, MI, USA). 1-mm coronal brain slices were cut with a razor blade at 14 predetermined anterior-posterior levels. After cryoprotection in 30% sucrose, slices were rapidly frozen in isopentane and stored at -80°C. Four to five cryostat sections (30 μm) from each brain slice were cut in a cryo microtome and stained with toluidine blue. The extent of cortical and striatal damage following ischemic injury was documented with microphotographic images from Nissl-stained slices showing the anterior-posterior level according to the brain atlas of Paxinos and Watson. The volumes of cortical and striatal infarct lesions were measured at eight predetermined anterior-posterior levels by an operator blinded to the group composition. Three-dimensional lesion sizes were calculated by integration of two-dimensional lesion sizes at each stereotactic level and the distances between the various levels. Image analysis was performed with an Eclipse TE 3000 microscope (Nikon, Düsseldorf, Germany), equipped with a 4x objective, and the Lucia software package (Version 4.2.1., Nikon). Data were statistically analyzed by non-paired Student's t-test and given as mean ± S.E.M.

[2] = system: cAAP; design: method as in Patent EP09169269; conditions: ref Patent EP09169269; cited from earlier work
[3] = system: mononuclear cells; design: method as in Patent EP09169269; conditions: ref Patent EP09169269; read-out: IC50, proliferation of mononuclear cells; cited from earlier work
[4] = system: DPII; design: method as in Patent EP09169269; conditions: ref Patent EP09169269; cited from earlier work
[5] = system: DPIV; design: method as in Patent EP09169269; conditions: ref Patent EP09169269; cited from earlier work
[6] = system: T cells; design: method as in Patent EP09169269; conditions: ref Patent EP09169269; read-out: IC50, proliferation of T cells; cited from earlier work
[7] = system: DP8/9; design: method as in Patent EP09169269; conditions: ref Patent EP09169269; cited from earlier work
[8] = system: APN; design: method as in Patent EP09169269; conditions: ref Patent EP09169269; cited from earlier work
[9] = in parallel to eMCAO and 6 h and 24 h post insult
[10] = in parallel to eMCAO and 6 h and 24 h post insult, analyzed 7 days post eMCAO

**Q.** For `CC[C@@H](C)[C@H](N)C(=O)N1Cc2ccccc2C1.Cl` [selective DP8/9 inhibitor, (2S,3R)-2-(2-amino-3-methyl-1-oxopentan-1-yl)-1,3-dihydro-2H-isoindole hydrochloride], which “effect on eMCAO-induced infarct volumes in ipsilateral cortices” value [1, 9] is on record?
**A.** The value was “did not decrease”.

**Q.** What about the “effect on striatal lesion sizes” value [1, 9] of the same compound?
**A.** The value was “neither sitagliptin nor selective DPII or DP8/9 inhibition affected”.

**Q.** Which results are given for `CCCCCCCCCCCCCCCC(=O)OC(C(=O)NCC(C)(C)CNC(=O)CC(N)Cc1cc(F)ccc1F)C(N)Cc1ccccc1` (stereo not shown) [IPC1755]?
**A.** IC50 [2]: 0.02 µM; IC50 [3]: 36 µM; effect on striatal lesion sizes ([1]; all three time schedules (Figure 7C columns b-d)): did not affect striatal lesion sizes; cortical lesion size, % of control damage of vehicle-treated animals ([1]; exclusively 6 and 24 h post eMCAO, analyzed 7 days post eMCAO): 107.5 ± 12.8%; reduction of eMCAO-induced infarct volume in ipsilateral cortex compared to vehicle [1, 10]: 48.8 ± 7.9%; IC50 [4]: 166 µM; IC50 [5]: 0.06 µM; IC50 [6]: 34 µM; IC50 [7]: 85 µM; IC50 [8]: 0.03 µM

**Q.** For `N[C@@H](CC(=O)N1CCn2c(nnc2C(F)(F)F)C1)Cc1cc(F)c(F)cc1F` [sitagliptin, (R)-3-Amino-1-[3-(trifluormethyl)-5,6,7,8-tetrahydro[1,2, 4]triazol[4,3-a]pyrazin-7-yl]-4-(2,4,5-trifluorphenyl)butan-1-on], which “effect on striatal lesion sizes” value [1, 9] is on record?
**A.** Its value is “neither sitagliptin nor selective DPII or DP8/9 inhibition affected”.

**Q.** What about the “reduction of eMCAO-induced infarct volume in ipsilateral cortex compared to vehicle” value [1, 10] of the same compound?
**A.** Its value is 21.1 ± 5.8%.

**Q.** Which “effect on eMCAO-induced infarct volumes in ipsilateral cortices” value [1, 9] does the source give for `NCC[C@H](N)C(=O)N1CCCCC1` [selective DPII inhibitor, L-2,4-Diaminobutyrylpiperidinamide] here?
**A.** Its value is “did not decrease”.

**Q.** What about the “effect on striatal lesion sizes” value [1, 9] of the same compound?
**A.** Its value is “neither sitagliptin nor selective DPII or DP8/9 inhibition affected”.
